Measured values taken from PMC12454493, “Insight on novel sulfamoylphenyl pyrazole derivatives as anticancer carbonic anhydrase inhibitors” (Molecular Diversity, 2024).
Where “and” joins values, the source holds several entries; their conditions need not be identical. Equal entries are not always repeated.

Experiments:
OVCAR-8 = assay: NCI-60 one-dose SRB screen (Ovarian cancer); format: cell-based; settings: Homo sapiens, single dose 10 µM, 48 h, read-out: Growth inhibition percent (GI %)
OVCAR-3 = assay: NCI-60 one-dose SRB screen (Ovarian cancer); format: cell-based; settings: Homo sapiens, single dose 10 µM, 48 h, read-out: Growth inhibition percent (GI %)
NCI/ADR-RES = assay: NCI-60 one-dose SRB screen (Ovarian cancer); format: cell-based; settings: Homo sapiens, single dose 10 µM, 48 h, read-out: Growth inhibition percent (GI %)
IGROV1 = assay: NCI-60 one-dose SRB screen (Ovarian cancer); format: cell-based; settings: Homo sapiens, IGROV-1, single dose 10 µM, 48 h, read-out: Growth inhibition percent (GI %)
OVCAR-4 = assay: NCI-60 one-dose SRB screen (Ovarian cancer); format: cell-based; settings: Homo sapiens, single dose 10 µM, 48 h, read-out: Growth inhibition percent (GI %)
HCC-2998 = assay: NCI-60 one-dose SRB screen (Colon Cancer); format: cell-based; settings: Homo sapiens, single dose 10 µM, 48 h, read-out: Growth inhibition percent (GI %)
HCT-116 = assay: NCI-60 one-dose SRB screen (Colon Cancer); format: cell-based; settings: Homo sapiens, single dose 10 µM, 48 h, read-out: Growth inhibition percent (GI %)
KM12 = assay: NCI-60 one-dose SRB screen (Colon Cancer); format: cell-based; settings: Homo sapiens, single dose 10 µM, 48 h, read-out: Growth inhibition percent (GI %)
SW-620 = assay: NCI-60 one-dose SRB screen (Colon Cancer); format: cell-based; settings: Homo sapiens, single dose 10 µM, 48 h, read-out: Growth inhibition percent (GI %)
COLO 205 = assay: NCI-60 one-dose SRB screen (Colon Cancer); format: cell-based; settings: Homo sapiens, single dose 10 µM, 48 h, read-out: Growth inhibition percent (GI %)
HCT-15 = assay: NCI-60 one-dose SRB screen (Colon Cancer); format: cell-based; settings: Homo sapiens, single dose 10 µM, 48 h, read-out: Growth inhibition percent (GI %)
M14 = assay: NCI-60 one-dose SRB screen (Melanoma); format: cell-based; settings: Homo sapiens, single dose 10 µM, 48 h, read-out: Growth inhibition percent (GI %)
SK-MEL-2 = assay: NCI-60 one-dose SRB screen (Melanoma); format: cell-based; settings: Homo sapiens, single dose 10 µM, 48 h, read-out: Growth inhibition percent (GI %)
UACC-257 = assay: NCI-60 one-dose SRB screen (Melanoma); format: cell-based; settings: Homo sapiens, single dose 10 µM, 48 h, read-out: Growth inhibition percent (GI %)
MALME-3M = assay: NCI-60 one-dose SRB screen (Melanoma); format: cell-based; settings: Homo sapiens, single dose 10 µM, 48 h, read-out: Growth inhibition percent (GI %)
MDA-MB-435 = assay: NCI-60 one-dose SRB screen (Melanoma); format: cell-based; settings: Homo sapiens, single dose 10 µM, 48 h, read-out: Growth inhibition percent (GI %)
LOX IMVI = assay: NCI-60 one-dose SRB screen (Melanoma); format: cell-based; settings: Homo sapiens, single dose 10 µM, 48 h, read-out: Growth inhibition percent (GI %)
UACC-62 = assay: NCI-60 one-dose SRB screen (Melanoma); format: cell-based; settings: Homo sapiens, single dose 10 µM, 48 h, read-out: Growth inhibition percent (GI %)
SK-MEL-28 = assay: NCI-60 one-dose SRB screen (Melanoma); format: cell-based; settings: Homo sapiens, single dose 10 µM, 48 h, read-out: Growth inhibition percent (GI %)
SK-MEL-5 = assay: NCI-60 one-dose SRB screen (Melanoma); format: cell-based; settings: Homo sapiens, single dose 10 µM, 48 h, read-out: Growth inhibition percent (GI %)
DU-145 = assay: NCI-60 one-dose SRB screen (Prostate Cancer); format: cell-based; settings: Homo sapiens, single dose 10 µM, 48 h, read-out: Growth inhibition percent (GI %)
PC-3 = assay: NCI-60 one-dose SRB screen (Prostate Cancer); format: cell-based; settings: Homo sapiens, single dose 10 µM, 48 h, read-out: Growth inhibition percent (GI %)
MCF-7 = assay: NCI-60 one-dose SRB screen (Breast Cancer); format: cell-based; settings: Homo sapiens, MCF7, single dose 10 µM, 48 h, read-out: Growth inhibition percent (GI %)
MDA-MB-231/ATCC = assay: NCI-60 one-dose SRB screen (Breast Cancer); format: cell-based; settings: Homo sapiens, single dose 10 µM, 48 h, read-out: Growth inhibition percent (GI %)
MDA-MB-468 = assay: NCI-60 one-dose SRB screen (Breast Cancer); format: cell-based; settings: Homo sapiens, single dose 10 µM, 48 h, read-out: Growth inhibition percent (GI %)
T-47D = assay: NCI-60 one-dose SRB screen (Breast Cancer); format: cell-based; settings: Homo sapiens, T47D, single dose 10 µM, 48 h, read-out: Growth inhibition percent (GI %)
HS 578T = assay: NCI-60 one-dose SRB screen (Breast Cancer); format: cell-based; settings: Homo sapiens, single dose 10 µM, 48 h, read-out: Growth inhibition percent (GI %)
BT-549 = assay: NCI-60 one-dose SRB screen (Breast Cancer); format: cell-based; settings: Homo sapiens, single dose 10 µM, 48 h, read-out: Growth inhibition percent (GI %)
K-562 = assay: NCI-60 one-dose SRB screen (Leukemia); format: cell-based; settings: Homo sapiens, K562, single dose 10 µM, 48 h, read-out: Growth inhibition percent (GI %)
HL-60(TB) = assay: NCI-60 one-dose SRB screen (Leukemia); format: cell-based; settings: Homo sapiens, single dose 10 µM, 48 h, read-out: Growth inhibition percent (GI %)
SR = assay: NCI-60 one-dose SRB screen (Leukemia); format: cell-based; settings: Homo sapiens, single dose 10 µM, 48 h, read-out: Growth inhibition percent (GI %)
CCRF-CEM = assay: NCI-60 one-dose SRB screen (Leukemia); format: cell-based; settings: Homo sapiens, single dose 10 µM, 48 h, read-out: Growth inhibition percent (GI %)
MOLT-4 = assay: NCI-60 one-dose SRB screen (Leukemia); format: cell-based; settings: Homo sapiens, single dose 10 µM, 48 h, read-out: Growth inhibition percent (GI %)
RPMI-8226 = assay: NCI-60 one-dose SRB screen (Leukemia); format: cell-based; settings: Homo sapiens, single dose 10 µM, 48 h, read-out: Growth inhibition percent (GI %)
hCA XII = hCA XII (Homo sapiens, UniProt O43570); assay: CA inhibitory activity, spectrophotometric p-NPA assay; format: biochemical; settings: p-NPA substrate, pH 7.5, 25 °C, triplicate; read-out: IC50 (µM) ± SD hCA XII
Procedure: The software used to calculate CA IC50 along with statistical analysis of the results is GraphPad Prism 9.00. Results were estimated by using one-way ANOVA and the Bonferroni’s multiple comparisons posthoc test was performed (P < 0.05) [46]
Carbonic anhydrase inhibitory activity:
The spectrophotometric assay was conducted in HEPES-Tris buffer, NaCl of pH 7.5 (20mM) at 25◦C. Each inhibitory well-consisted of 50 μL of assay buffer solution, 20 μL of hCA enzyme solution (20 ng/μL in Assay Buffer), and 50 μL of test compound in HPLC grade DMSO (maintain 10% of the final concentration). The mixture solution was
Substrate p-nitrophenyl acetate (p-NPA) (0.7mM) was prepared in HPLC grade methanol and the reaction was started by adding 20 μL to a well in a 96-well-plate. The amount of product formed was measured for 30 min continuously at 1 min intervals at 400 nm in a 96-well-plate using xMARK microplate spectrophotometer, Bio-Rad (USA). The activity of the controlled compound was taken as 100%. All experiments were carried out in triplicates of each used concentration, and results are represented as a

TK-10 = assay: NCI-60 one-dose SRB screen (Renal Cancer); format: cell-based; settings: Homo sapiens, single dose 10 µM, 48 h, read-out: Growth inhibition percent (GI %)
RXF 393 = assay: NCI-60 one-dose SRB screen (Renal Cancer); format: cell-based; settings: Homo sapiens, single dose 10 µM, 48 h, read-out: Growth inhibition percent (GI %)
CAKI-1 = assay: NCI-60 one-dose SRB screen (Renal Cancer); format: cell-based; settings: Homo sapiens, single dose 10 µM, 48 h, read-out: Growth inhibition percent (GI %)
A498 = assay: NCI-60 one-dose SRB screen (Renal Cancer); format: cell-based; settings: Homo sapiens, single dose 10 µM, 48 h, read-out: Growth inhibition percent (GI %)
ACHN = assay: NCI-60 one-dose SRB screen (Renal Cancer); format: cell-based; settings: Homo sapiens, single dose 10 µM, 48 h, read-out: Growth inhibition percent (GI %)
UO-31 = assay: NCI-60 one-dose SRB screen (Renal Cancer); format: cell-based; settings: Homo sapiens, single dose 10 µM, 48 h, read-out: Growth inhibition percent (GI %)
SN12C = assay: NCI-60 one-dose SRB screen (Renal Cancer); format: cell-based; settings: Homo sapiens, single dose 10 µM, 48 h, read-out: Growth inhibition percent (GI %)
hCA IX = hCA IX (Homo sapiens, UniProt Q16790); assay: CA inhibitory activity, spectrophotometric p-NPA assay; format: biochemical; settings: p-NPA substrate, pH 7.5, 25 °C, triplicate; read-out: IC50 (µM) ± SD hCA IX

Sequence of hCA XII (O43570 25-354): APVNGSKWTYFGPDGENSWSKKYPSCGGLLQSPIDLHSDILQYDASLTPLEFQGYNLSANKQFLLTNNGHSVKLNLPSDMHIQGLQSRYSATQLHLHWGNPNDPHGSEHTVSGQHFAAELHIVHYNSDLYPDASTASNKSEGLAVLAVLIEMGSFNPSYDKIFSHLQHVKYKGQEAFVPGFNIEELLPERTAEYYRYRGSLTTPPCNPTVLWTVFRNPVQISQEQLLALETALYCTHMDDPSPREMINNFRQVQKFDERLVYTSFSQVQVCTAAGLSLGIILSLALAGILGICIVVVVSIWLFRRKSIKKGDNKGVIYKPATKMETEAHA

Structure (SMILES): Cc1ccc(-c2nn(-c3ccc(S(N)(=O)=O)cc3)cc2-c2nnc(N)s2)cc1 [Compound 10, 4-[4-(5-Amino-1,3,4-thiadiazol-2-yl)-3-(p-tolyl)-1H-pyrazol-1-yl] benzenesulfonamide]
- inhibition at 10 µM (OVCAR-8): < 5%
- inhibition at 10 µM (OVCAR-3): < 5%
- inhibition at 10 µM (NCI/ADR-RES): < 5%
- inhibition at 10 µM (IGROV1): < 5%
- inhibition at 10 µM (OVCAR-4): < 5%
- inhibition at 10 µM (HCC-2998): < 5%
- inhibition at 10 µM (HCT-116): < 5%
- inhibition at 10 µM (KM12): < 5%
- inhibition at 10 µM (SW-620): < 5%
- inhibition at 10 µM (COLO 205): < 5%
- inhibition at 10 µM (HCT-15): < 5%
- inhibition at 10 µM (M14): < 5%
- inhibition at 10 µM (SK-MEL-2): < 5%
- inhibition at 10 µM (UACC-257): 5.16%
- inhibition at 10 µM (MALME-3M): < 5%
- inhibition at 10 µM (MDA-MB-435): < 5%
- inhibition at 10 µM (LOX IMVI): 11.8%
- inhibition at 10 µM (UACC-62): < 5%
- inhibition at 10 µM (SK-MEL-28): < 5%
- inhibition at 10 µM (SK-MEL-5): 18.5%
- inhibition at 10 µM (DU-145): < 5%
- inhibition at 10 µM (PC-3): 8.5%
- inhibition at 10 µM (MCF-7): 15.8%
- inhibition at 10 µM (MDA-MB-231/ATCC): < 5%
- inhibition at 10 µM (MDA-MB-468): 5.43%
- inhibition at 10 µM (T-47D): 13.2%
- inhibition at 10 µM (HS 578T): 5.02%
- inhibition at 10 µM (BT-549): 11.2%
- inhibition at 10 µM (K-562): 11.1%
- inhibition at 10 µM (HL-60(TB)): 9.66%
- inhibition at 10 µM (SR): < 5%
- inhibition at 10 µM (CCRF-CEM): 10.2%
- inhibition at 10 µM (MOLT-4): < 5%
- inhibition at 10 µM (RPMI-8226): 10.2%
- IC50 (hCA XII): 1.14 µM and 1.15 µM
- inhibition at 10 µM (TK-10): 15.4%
- inhibition at 10 µM (RXF 393): 9.9%
- inhibition at 10 µM (CAKI-1): 12.1%
- inhibition at 10 µM (A498): 15.5%
- inhibition at 10 µM (ACHN): < 5%
- inhibition at 10 µM (UO-31): 7.96%
- inhibition at 10 µM (SN12C): < 5%
- IC50 (hCA IX): 0.66 µM and 0.663 µM

Structure (SMILES): Cc1ccc(-c2nn(-c3ccc(S(N)(=O)=O)cc3)cc2-c2n[nH]c(=S)[nH]2)cc1 [Compound 11, 4-[4-(5-Mercapto-1H-1,2,4-triazol-3-yl)-3-(p-tolyl)-1H-pyrazol-1-yl] benzenesulfonamide]
- inhibition at 10 µM (OVCAR-8): < 5%
- inhibition at 10 µM (OVCAR-3): 11.4%
- inhibition at 10 µM (NCI/ADR-RES): < 5%
- inhibition at 10 µM (IGROV1): < 5%
- inhibition at 10 µM (OVCAR-4): 10.1%
- inhibition at 10 µM (HCC-2998): < 5%
- inhibition at 10 µM (HCT-116): < 5%
- inhibition at 10 µM (KM12): < 5%
- inhibition at 10 µM (SW-620): < 5%
- inhibition at 10 µM (COLO 205): < 5%
- inhibition at 10 µM (HCT-15): < 5%
- inhibition at 10 µM (M14): < 5%
- inhibition at 10 µM (SK-MEL-2): < 5%
- inhibition at 10 µM (UACC-257): < 5%
- inhibition at 10 µM (MALME-3M): < 5%
- inhibition at 10 µM (MDA-MB-435): < 5%
- inhibition at 10 µM (LOX IMVI): 13.5%
- inhibition at 10 µM (UACC-62): 12.9%
- inhibition at 10 µM (SK-MEL-28): < 5%
- inhibition at 10 µM (SK-MEL-5): < 5%
- inhibition at 10 µM (DU-145): < 5%
- inhibition at 10 µM (PC-3): < 5%
- inhibition at 10 µM (MCF-7): 6.49%
- inhibition at 10 µM (MDA-MB-231/ATCC): < 5%
- inhibition at 10 µM (MDA-MB-468): < 5%
- inhibition at 10 µM (T-47D): 21.2%
- inhibition at 10 µM (HS 578T): < 5%
- inhibition at 10 µM (BT-549): < 5%
- inhibition at 10 µM (K-562): < 5%
- inhibition at 10 µM (HL-60(TB)): < 5%
- inhibition at 10 µM (SR): 15.8%
- inhibition at 10 µM (CCRF-CEM): < 5%
- inhibition at 10 µM (MOLT-4): 21.1%
- inhibition at 10 µM (RPMI-8226): < 5%
- IC50 (hCA XII): 0.33 µM and 0.332 µM
- inhibition at 10 µM (TK-10): < 5%
- inhibition at 10 µM (RXF 393): 10.1%
- inhibition at 10 µM (CAKI-1): 11.4%
- inhibition at 10 µM (A498): < 5%
- inhibition at 10 µM (ACHN): < 5%
- inhibition at 10 µM (UO-31): < 5%
- inhibition at 10 µM (SN12C): 7.65%
- IC50 (hCA IX): 0.24 ± 0.011 µM
